# Source: patent US8791264B2 (Purdue Pharma L.P., priority 2006, dated 2014)
# Biological target: T1, N-type calcium channel (NTCC) (Homo sapiens, UniProt Q00975)
# T1 construct: host or cells: IMR32 cells differentiated with dibutyryl cAMP and bromodeoxyuridine
# Experiment: FLIPR calcium mobilization assay for N-type calcium channel
# Assay type: cell-based
# Conditions: calcium mobilization in vitro assay; differentiated IMR32 cells
# Procedure: Unless noted otherwise, cell culture reagents were purchased from Mediatech of Herndon, Md. IMR32 cells (American Type Culture Collection, ATCC, Manassas, Va.) were routinely cultured in growth medium consisting of minimum essential medium containing 10% fetal bovine serum (FBS, Hyclone, Logan, Utah), 100 U/mL penicillin, 100 μg/mL streptomycin, 2 mM L-glutamine, 1 mM sodium pyruvate, and 1× MEM non-essential amino acids. 80-90% confluent flasks of cells were differentiated using the following differentiation medium: Growth medium plus 1 mM dibutyryl cyclic AMP (Sigma, St. Louis, Mo.), and 2.5 μM bromodeoxyuridine (Sigma). Cells were differentiated for 8 days by replacing differentiation medium every 2-3 days.
# FLIPR Calcium Mobilization Assay for N-Type Calcium Channel.
# One day prior to performing this assay, differentiated IMR32 cells were treated with 1× CellStripper, and seeded on poly-D-lysine-coated 96-well clear-bottom black plates (Becton Dickinson, Franklin Lakes, N.J.) at 200,000 cells/well. On the day of the assay, the cell plates were washed with IMR32 buffer (127 mM NaCl, 1 mM KCl, 2 mM MgCl2, 700 μM NaH2PO4, 5 mM CaCl2, 5 mM NaHCO3, 8 mM HEPES, 10 mM glucose, pH 7.4), then pre-stimulated with KCl and loaded as follows: 0.05 mL of IMR32 buffer, 0.05 mL of each compound tested diluted in IMR32 buffer containing 20 μM nitrendipine (Sigma), and 0.1 mL KCl dissolved in IMR32 buffer, plus Fluo-4 were added (3 μM final concentration, Molecular Probes, Eugene, Oreg.). Final test compound concentrations ranged from about 846 pM to about 17 μM, final nitrendipine concentration was 5 μM, and final KCl concentration was 90 mM. After 1 hour, the cells were washed twice with 0.05 mL of each compound is tested in nitrendipine-containing IMR32 buffer (no KCl or Fluo-4), and then replaced with 0.1 mL of each compound tested in nitrendipine-containing IMR32 buffer. Plates were then transferred to a Fluorimetric Imaging Plate Reader (FLIPR^96, Molecular Devices, Inc., Sunnyvale, Calif.) for assay. The FLIPR measured basal Fluo-4 fluorescence for 315 seconds (i.e., 5 minutes and 15 seconds), then added 0.1 mL KCl agonist dissolved in IMR32 buffer and measured fluorescence for another 45 seconds. Final test compound concentrations on the cells after FLIPR read ranged from about 846 pM to about 17 μM, final nitrendipine concentration was 5 μM, and final KCl concentration was 90 mM. Data were collected over the entire time course and analyzed using Excel, Graph Pad Prism (version 3.02, Graph Pad, San Diego, Calif.), or an in-house non-linear regression analysis software.
# T1 sequence (Q00975 whole entry): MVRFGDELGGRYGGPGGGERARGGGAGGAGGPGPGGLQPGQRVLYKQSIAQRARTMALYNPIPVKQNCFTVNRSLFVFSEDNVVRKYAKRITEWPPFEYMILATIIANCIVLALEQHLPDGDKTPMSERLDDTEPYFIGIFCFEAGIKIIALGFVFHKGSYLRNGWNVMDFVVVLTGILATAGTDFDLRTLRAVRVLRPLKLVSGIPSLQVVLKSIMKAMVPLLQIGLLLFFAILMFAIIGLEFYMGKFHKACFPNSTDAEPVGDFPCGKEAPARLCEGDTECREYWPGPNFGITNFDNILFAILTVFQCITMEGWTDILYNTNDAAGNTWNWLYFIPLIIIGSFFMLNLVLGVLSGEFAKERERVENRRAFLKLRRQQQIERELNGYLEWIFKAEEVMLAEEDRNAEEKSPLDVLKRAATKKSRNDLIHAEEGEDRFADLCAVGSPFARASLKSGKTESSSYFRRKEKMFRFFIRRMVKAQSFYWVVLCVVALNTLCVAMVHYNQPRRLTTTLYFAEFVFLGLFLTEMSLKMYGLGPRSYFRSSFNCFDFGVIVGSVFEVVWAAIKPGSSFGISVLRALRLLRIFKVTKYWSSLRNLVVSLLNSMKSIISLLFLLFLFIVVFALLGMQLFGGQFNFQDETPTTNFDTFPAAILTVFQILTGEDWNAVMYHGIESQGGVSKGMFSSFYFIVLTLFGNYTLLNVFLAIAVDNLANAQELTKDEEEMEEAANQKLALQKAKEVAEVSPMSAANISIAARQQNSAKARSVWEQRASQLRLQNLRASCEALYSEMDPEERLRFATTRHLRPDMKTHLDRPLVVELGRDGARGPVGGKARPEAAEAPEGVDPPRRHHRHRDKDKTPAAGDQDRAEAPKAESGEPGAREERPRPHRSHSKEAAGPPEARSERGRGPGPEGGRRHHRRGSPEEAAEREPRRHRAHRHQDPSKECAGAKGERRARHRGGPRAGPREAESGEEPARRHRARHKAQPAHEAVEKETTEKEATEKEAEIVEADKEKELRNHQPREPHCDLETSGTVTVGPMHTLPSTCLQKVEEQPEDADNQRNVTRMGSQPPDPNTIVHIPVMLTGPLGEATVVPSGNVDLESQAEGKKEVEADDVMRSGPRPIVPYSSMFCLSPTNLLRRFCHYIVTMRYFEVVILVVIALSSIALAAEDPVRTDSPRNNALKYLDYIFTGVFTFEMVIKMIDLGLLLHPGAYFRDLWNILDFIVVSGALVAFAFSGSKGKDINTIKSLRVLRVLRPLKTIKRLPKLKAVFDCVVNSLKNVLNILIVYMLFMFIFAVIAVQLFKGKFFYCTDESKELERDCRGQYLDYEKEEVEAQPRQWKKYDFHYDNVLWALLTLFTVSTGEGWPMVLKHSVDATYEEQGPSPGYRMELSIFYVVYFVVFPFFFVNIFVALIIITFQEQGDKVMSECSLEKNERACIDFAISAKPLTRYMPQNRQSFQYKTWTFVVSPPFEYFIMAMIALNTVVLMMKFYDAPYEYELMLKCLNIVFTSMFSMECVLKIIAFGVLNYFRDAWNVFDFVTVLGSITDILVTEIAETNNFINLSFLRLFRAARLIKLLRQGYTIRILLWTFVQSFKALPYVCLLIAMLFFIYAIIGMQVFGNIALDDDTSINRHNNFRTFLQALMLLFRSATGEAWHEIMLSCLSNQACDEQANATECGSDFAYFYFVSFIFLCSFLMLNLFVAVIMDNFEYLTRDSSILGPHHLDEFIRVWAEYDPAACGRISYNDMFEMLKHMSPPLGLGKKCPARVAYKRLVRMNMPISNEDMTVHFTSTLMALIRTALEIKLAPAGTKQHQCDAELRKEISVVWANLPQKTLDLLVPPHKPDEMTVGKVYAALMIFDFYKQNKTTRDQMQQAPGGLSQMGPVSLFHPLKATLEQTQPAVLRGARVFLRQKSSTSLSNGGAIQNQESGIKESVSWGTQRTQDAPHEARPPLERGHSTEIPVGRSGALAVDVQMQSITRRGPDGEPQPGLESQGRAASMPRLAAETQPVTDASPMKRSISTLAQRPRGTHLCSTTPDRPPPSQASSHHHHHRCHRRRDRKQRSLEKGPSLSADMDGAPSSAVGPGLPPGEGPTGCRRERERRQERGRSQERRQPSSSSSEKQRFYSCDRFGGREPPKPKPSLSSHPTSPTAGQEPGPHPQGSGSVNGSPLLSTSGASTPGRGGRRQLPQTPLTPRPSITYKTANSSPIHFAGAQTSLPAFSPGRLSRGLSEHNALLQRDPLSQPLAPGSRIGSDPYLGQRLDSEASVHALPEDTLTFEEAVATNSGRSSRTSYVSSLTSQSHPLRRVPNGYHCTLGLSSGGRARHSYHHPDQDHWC
# T1 sequence (P54289 25-956 partner limits assumed): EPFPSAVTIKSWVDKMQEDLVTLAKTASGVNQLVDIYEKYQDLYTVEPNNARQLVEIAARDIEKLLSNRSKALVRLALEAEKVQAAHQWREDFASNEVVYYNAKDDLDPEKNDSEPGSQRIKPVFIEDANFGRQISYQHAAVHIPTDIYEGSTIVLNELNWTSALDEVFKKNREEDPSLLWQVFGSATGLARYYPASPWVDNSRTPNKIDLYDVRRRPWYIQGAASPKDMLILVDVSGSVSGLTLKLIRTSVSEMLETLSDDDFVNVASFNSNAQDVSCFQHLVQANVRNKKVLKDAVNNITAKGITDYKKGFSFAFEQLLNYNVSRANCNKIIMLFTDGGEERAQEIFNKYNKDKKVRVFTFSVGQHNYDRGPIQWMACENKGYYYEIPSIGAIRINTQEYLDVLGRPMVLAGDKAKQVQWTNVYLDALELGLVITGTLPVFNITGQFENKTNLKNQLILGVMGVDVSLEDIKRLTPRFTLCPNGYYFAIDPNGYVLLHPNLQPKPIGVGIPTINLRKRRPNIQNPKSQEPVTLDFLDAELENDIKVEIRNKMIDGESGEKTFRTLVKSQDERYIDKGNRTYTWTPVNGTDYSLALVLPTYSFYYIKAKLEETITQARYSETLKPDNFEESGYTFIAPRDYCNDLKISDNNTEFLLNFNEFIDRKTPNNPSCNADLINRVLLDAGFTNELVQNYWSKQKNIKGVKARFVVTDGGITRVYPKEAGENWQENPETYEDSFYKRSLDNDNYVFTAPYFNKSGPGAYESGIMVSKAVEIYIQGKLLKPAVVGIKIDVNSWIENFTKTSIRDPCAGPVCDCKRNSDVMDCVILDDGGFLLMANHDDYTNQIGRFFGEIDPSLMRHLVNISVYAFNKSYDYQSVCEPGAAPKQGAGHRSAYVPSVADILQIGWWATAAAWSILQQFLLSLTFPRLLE
# T1 sequence (P54289 957-1103 partner limits assumed): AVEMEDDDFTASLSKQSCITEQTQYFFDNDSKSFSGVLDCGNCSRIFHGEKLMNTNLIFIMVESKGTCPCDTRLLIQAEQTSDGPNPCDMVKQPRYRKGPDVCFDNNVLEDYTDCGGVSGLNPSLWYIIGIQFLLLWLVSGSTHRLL
# T1 sequence (P54284 whole entry partner): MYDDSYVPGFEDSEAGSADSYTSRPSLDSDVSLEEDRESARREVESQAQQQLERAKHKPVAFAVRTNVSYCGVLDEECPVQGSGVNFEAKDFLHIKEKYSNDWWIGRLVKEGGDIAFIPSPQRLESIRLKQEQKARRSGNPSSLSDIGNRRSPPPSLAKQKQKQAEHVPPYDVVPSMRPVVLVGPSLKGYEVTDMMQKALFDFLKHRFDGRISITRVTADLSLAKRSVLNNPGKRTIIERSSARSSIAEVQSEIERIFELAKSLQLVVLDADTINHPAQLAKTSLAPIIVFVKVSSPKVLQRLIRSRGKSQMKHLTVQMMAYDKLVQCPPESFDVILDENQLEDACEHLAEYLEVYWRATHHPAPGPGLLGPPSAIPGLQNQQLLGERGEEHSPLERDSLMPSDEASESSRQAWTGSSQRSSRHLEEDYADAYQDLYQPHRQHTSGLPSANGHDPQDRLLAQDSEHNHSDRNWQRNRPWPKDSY
row,Structure (SMILES),IC50
1,"CC(C)N(C1CCN(CC(N)=O)CC1)S(=O)(=O)c1cccc(C(F)(F)F)c1 [Compound 33, 2-{4-[Isopropyl-(3-trifluoromethylbenzenesulfonyl)amino]-piperidin-1-yl}-acetamide]",10 to 20 µM
2,"CN(C1CCN(C(=O)CC(=O)Nc2ccc(F)cc2F)CC1)S(=O)(=O)c1cccc(C(F)(F)F)c1 [Compound 28, N-(2,4-Difluorophenyl)-3-{4-[methyl-(3-trifluoromethylbenzene-sulfonyl)amino]-piperidin-1-yl}-3-oxo-propionamide]",4.9 µM
3,"COCCNCC(=O)N1CCC(N(C(C)C)S(=O)(=O)c2cccc(C(F)(F)F)c2)CC1 [Compound 95, N-Isopropyl-N-{1-[2-(2-methoxy-ethylamino)acetyl]-piperidin-4-yl}-3-trifluoromethylbenzenesulfonamide]",2.24 µM
4,CC(C)N(C1CCN(C(=O)C(N)Cc2cccc3ccccc23)CC1)S(=O)(=O)c1cccc(C(F)(F)F)c1 (centres unmarked) [N-[1-(2-amino-3-naphthalen-1-yl-propionyl)-piperidin-4-yl]-N-isopropyl-3-trifluoromethyl-benzenesulfonamide],2.55 µM
5,"CC(C)CNC(=O)CCN1CCC(N(C(C)C)S(=O)(=O)c2cccc(C(F)(F)F)c2)CC1 [Compound 107c, N-Isobutyl-3-{4-[isopropyl-(3-trifluoromethylbenzenesulfonyl)amino]-piperidin-1-yl}-propionamide]",2 µM
6,"O=C(CC(=O)N1CCC(N(C2CC2)S(=O)(=O)c2cccc(C(F)(F)F)c2)CC1)Nc1ccc(F)cc1F [Compound 27, 3-{4-[Cyclopropyl-(3-trifluoromethylbenzenesulfonyl)amino]-piperidin-1-yl}-N-(2,4-difluorophenyl)-3-oxo-propionamide]",1.33 µM
7,"O=C(CN1CCC(N(C2CC2)S(=O)(=O)c2ccccc2)CC1)Nc1ccc(F)cc1 [Compound 48, 2-[4-(Benzenesulfonylcyclopropylamino)-piperidin-1-yl]-N-(4-fluorophenyl)acetamide]",2.26 µM
8,"O=C(CC(=O)N1CCC(N(C2CC2)S(=O)(=O)c2cccc(Cl)c2)CC1)Nc1ccc(F)cc1F [Compound 29, 3-{4-[(3-Chlorobenzenesulfonyl)-cyclopropylamino]-piperidin-1-yl}-N-(2,4-difluorophenyl)-3-oxo-propionamide]",8.86 µM
9,"COc1ccc(CN[C@H](C(=O)N2CCC(N(C(C)C)S(=O)(=O)c3cccc(C(F)(F)F)c3)CC2)C(C)C)cc1 [Compound 88a, (S)—N-Isopropyl-N-{1-[2-(4-methoxybenzylamino)-3-methylbutyryl]-piperidin-4-yl}-3-trifluoromethylbenzenesulfonamide]",1.73 µM
10,"O=C(CN1CCC(N(C2CC2)S(=O)(=O)c2cccc(F)c2)CC1)Nc1ccc(F)cc1 [Compound 46, 2-{4-[Cyclopropyl-(3-fluorobenzenesulfonyl)amino]-piperidin-1-yl}-N-(4-fluorophenyl)acetamide]",2.03 µM
11,C#CCC(N)C(=O)N1CCC(N(C(C)C)S(=O)(=O)c2cccc(C(F)(F)F)c2)CC1 (centres unmarked) [N-[1-(2-amino-pent-4-ynoyl)-piperidin-4-yl]-N-isopropyl-3-trifluoromethyl-benzenesulfonamide],5.96 µM
12,"Cc1cccc(S(=O)(=O)N(C2CC2)C2CCN(CC(=O)NCC(C)C)CC2)c1 [Compound 35, 2-{4-[Cyclopropyl-(toluene-3-sulfonyl)amino]-piperidin-1-yl}-N-isobutylacetamide]",5.93 µM
13,"COc1ccc(Cl)cc1NC(=O)CN1CCC(N(C2CC2)S(=O)(=O)c2cccc(C(F)(F)F)c2)CC1 [Compound 82, N-(5-Chloro-2-methoxyphenyl)-2-{4-[cyclopropyl-(3-trifluoromethyl-benzenesulfonyl)amino]-piperidin-1-yl}-acetamide]",3.99 µM
14,"CC(C)N(C1CCN(C(=O)CNc2ccc(F)cc2)CC1)S(=O)(=O)c1cccc(C(F)(F)F)c1 [Compound 17, N-{1-[2-(4-Fluorophenylamino)acetyl]-piperidin-4-yl}-N-isopropyl-3-trifluoromethylbenzenesulfonamide]",1.68 µM
15,CC(C)N(C1CCN(C(=O)CC(N)c2cccs2)CC1)S(=O)(=O)c1cccc(C(F)(F)F)c1 (centres unmarked) [N-[1-(3-amino-3-thiophen-2-yl-propionyl)-piperidin-4-yl]-N-isopropyl-3-trifluoromethyl-benzenesulfonamide],1.1 µM
16,CC(C)CNC(=O)CN1CCC(N(C)S(=O)(=O)c2ccccc2)CC1 [2-[4-(benzenesulfonyl-methyl-amino)-piperidin-1-yl]-N-isobutyl-acetamide],> 20 µM
17,CC(C)N(C1CCN(C(=O)C(C)(C)N)CC1)S(=O)(=O)c1cccc(C(F)(F)F)c1 [N-[1-(2-amino-2-methyl-propionyl)-piperidin-4-yl]-N-isopropyl-3-trifluoromethylbenzenesulfonamide],9.39 µM
18,"Cc1cccc(S(=O)(=O)N(C2CC2)C2CCN(CC(=O)Nc3ccc(F)cc3)CC2)c1 [Compound 45, 2-{4-[Cyclopropyl-(toluene-3-sulfonyl)amino]-piperidin-1-yl}-N-(4-fluorophenyl)acetamide]",1.39 µM
19,"CC(C)CNC(=O)CN1CCC(N(C2CC2)S(=O)(=O)c2cccc(F)c2)CC1 [Compound 36, 2-{4-[Cyclopropyl-(3-fluorobenzenesulfonyl)amino]-piperidin-1-yl}-N-isobutylacetamide]",8 µM
20,CN(C1CCN(CC(=O)Nc2nc3ccc(F)cc3s2)CC1)S(=O)(=O)c1cccc(C(F)(F)F)c1 [Compound 65],2.16 µM

# The remaining lines, values ahead:
row,IC50,Structure (SMILES)
1,1.83 µM,"O=C(CN1CCC(N(C2CC2)S(=O)(=O)c2cccc(C(F)(F)F)c2)CC1)Nc1ccc(Cl)cc1OC(F)(F)F [Compound 76, N-(4-Chloro-2-trifluoromethoxyphenyl)-2-{4-[cyclopropyl-(3-trifluoromethylbenzenesulfonyl)amino]-piperidin-1-yl}-acetamide]"
2,> 20 µM,"O=C(CN1CCC(N(C2CC2)S(=O)(=O)c2cccc(C(F)(F)F)c2)CC1)Nc1ccc(C(F)(F)F)cc1C(F)(F)F [Compound 72, N-(2,4-Bis-trifluoromethylphenyl)-2-{4-[cyclopropyl-(3-trifluoromethylbenzenesulfonyl)amino]-piperidin-1-yl}-acetamide]"
3,3.81 µM,"Cc1cccc(S(=O)(=O)N(C2CC2)C2CCN(CC(=O)Nc3cc(C(F)(F)F)cc(C(F)(F)F)c3)CC2)c1 [Compound 69, N-(3,5-Bis-trifluoromethylphenyl)-2-{4-[cyclopropyl-(toluene-3-sulfonyl)amino]-piperidin-1-yl}-acetamide]"
4,1.59 µM,"CN(C1CCN(CC(=O)Nc2cc(C(F)(F)F)cc(C(F)(F)F)c2)CC1)S(=O)(=O)c1ccccc1 [Compound 68, 2-[4-(Benzenesulfonyl-methyl-amino)-piperidin-1-yl]-N-(3,5-bis-trifluoromethylphenyl)-acetamide]"
5,2.53 µM,"O=C(CN1CCC(N(C2CC2)S(=O)(=O)c2cccc(Cl)c2)CC1)Nc1cc(C(F)(F)F)cc(C(F)(F)F)c1 [Compound 66, N-(3,5-Bis-trifluoromethylphenyl)-2-{4-[(3-chlorobenzenesulfonyl)-cyclopropylamino]-piperidin-1-yl}-acetamide]"
6,1.22 µM,"O=C(CN1CCC(NS(=O)(=O)c2cccc(C(F)(F)F)c2)CC1)Nc1ccc(C(F)(F)F)c(C(F)(F)F)c1 [N-(3,4-bis-trifluoromethylphenyl)-2-{4-[(3-trifluoromethylbenzenesulfonyl)amino]-piperidin-1-yl}-acetamide]"
7,6.63 µM,"O=C(CN1CCC(N(C2CC2)S(=O)(=O)c2cccc(C(F)(F)F)c2)CC1)Nc1cc(C(F)(F)F)ccc1Cl [Compound 77, N-(2-Chloro-5-trifluoromethylphenyl)-2-{4-[cyclopropyl-(3-trifluoromethylbenzenesulfonyl)amino]-piperidin-1-yl}-acetamide]"
8,1.24 µM,"O=C(CN1CCC(NS(=O)(=O)c2cccc(C(F)(F)F)c2)CC1)Nc1ccc(F)cc1 [Compound 116, N-(4-Fluorophenyl)-2-[4-(3-trifluoromethylbenzenesulfonylamino)-piperidin-1-yl]-acetamide]"
9,10 to 20 µM,"COc1ccc(C(F)(F)F)cc1NC(=O)CN1CCC(N(C2CC2)S(=O)(=O)c2cccc(C(F)(F)F)c2)CC1 [Compound 83, 2-{4-[Cyclopropyl-(3-trifluoromethylbenzenesulfonyl)amino]-piperidin-1-yl}-N-(2-methoxy-5-trifluoromethylphenyl)-acetamide]"
